This is an account of results in patent US20050089577A1, “Liquid matrix undergoing phase transfer in vivo and liquid oral preparations” (priority 2002, published 2005).

One data set concerns acetic acid ulcer. Kind of data set: Therapeutic effect in rat acetic acid chronic ulcer model. The format is in vivo, Wister male rats. Particulars: 0.5 ml daily once for 2 weeks, eighth week; for Average ulcer coefficient: 3 rats; for Ulcer coefficient: individual rats. From the text:
That is, the rats were anesthetized under Nembutal and the belly was cut along the midline to remove the stomach. Then, a cylinder of […] in diameter charged with absorbent cotton impregnated sufficiently with 100% acetic acid was pressed against the border between the stomach and the pyloric region for about 30 seconds, and the acetic acid adhering to the serous membrane was wiped off with a germ-free gauze, and the belly was sutured. After 6 weeks, one rat was picked up as the control at random from the untreated group, killed and dissected to confirm ulcer formation. […] In the seventh and eight weeks, one untreated rat selected at random was killed and the belly was opened to reconfirm formation of stomach ulcer. Each rat was killed in the eight week and the area of the ulcer was measured, and the ulcer coefficient was determined according to a method of Okabe et al. (Okabe S, Roth […] method for experimental penetrating gastric and duodenal ulcers in rats. Observation on normal healing. Amer J Dig Dis 16: 277-284, 1971).

A further data set has as its system indomethacin ulcer. Kind of data set: Therapeutic effect in indomethacin ulcer rat model. In kind it is in vivo, Wister male rats. Also on record: key: no bleeding was expressed as negative (−); trace bleeding was given (±); dotted bleeding (+); broad bleeding (++). Particulars: individual rats; given 3 hours after indomethacin 20 mg/kg; judged after 24 hours; PGE1 3.3 μg/kg. On the procedure: 3 hours after administration of indomethacin, prostaglandin (PGE1) liquid preparation No. 41 (containing alprostadil alfadex as the medicine), PGE1 solution dissolved in purified water in a dose of 3.3 μg/kg in weight as a positive control, the liquid matrix only was administered as a negative control, and purified water only for confirming formation of ulcer to the untreated group, respectively, was administered. After 1 hour, the rats were given feed. The untreated group after 3 hours from administration of indomethacin and the other groups after 24 hours were killed, and dissected to judge ulcer and bleeding in the stomach.
Indomethacin ulcer in the fasted rats is different from that in humans, and develops in the stomach without generating in the pyloric vestibule. Therefore, judgment was made on the basis of bleeding. That is, no bleeding was expressed as negative (−), trace bleeding was given (±), dotted bleeding (+), and broad bleeding (++).

The conditions of data set [1]: rat, in vivo, 20 mg/kg.
Protocol: These rats were fasted for 24 hours, and then indomethacin (IND) suspended in 1% carboxymethyl cellulose (CMS) solution was administered in a dose of 20 mg/kg to the rats via an oral probe for rat into the stomach to induce indomethacin ulcer.

Where “and” joins values, the source holds several entries; their conditions need not be identical. Identical values can stand only once. Counter-ions that a name gives are not always drawn.

The compound `NC[C@H]1CC[C@H](C(=O)Oc2ccc(CCC(=O)O)cc2)CC1` [Cetraxate HCl solution, cetraxate hydrochloride] had an Average ulcer coefficient in the data set with acetic acid ulcer of 2.33. In addition, the Ulcer coefficient with acetic acid ulcer (hydrochloride) is 2 (2 for 11 to 20 mm^2) (2×) and 3 (3 for 21 to 30 mm^2).
With `CN/C(=N/CCSCc1nc[nH]c1C)NC#N` [Cimetidine solution, cimetidine], in the data set with acetic acid ulcer, the Average ulcer coefficient is recorded as 2.67; the Ulcer coefficient was 3 (3 for 21 to 30 mm^2) (2×) and 2 (2 for 11 to 20 mm^2).
On to `CCCCC[C@H](O)/C=C/[C@H]1[C@H](O)CC(=O)[C@@H]1CCCCCCC(=O)O` [PEG1 solution, prostaglandin (PGE1)], for which the “Judgment of bleeding in the stomach” value with indomethacin ulcer was “± (3×) and + and −”.
As to `CC(=O)CC/C=C(\C)CC/C=C(\C)CC/C=C(\C)CCC=C(C)C` [Teprenone solution, teprenone], in the data set with acetic acid ulcer, the Average ulcer coefficient is 2.33; the Ulcer coefficient was 3 (3 for 21 to 30 mm^2) and 2 (2 for 11 to 20 mm^2) (2×).
For `COc1ccc2c(c1)c(CC(=O)O)c(C)n2C(=O)c1ccc(Cl)cc1` [indomethacin], the “Time at which blood concentration reached the maximum” value in data set [1] (male, Wister) was 3 h. In addition, in data set [1], the “Finding in the stomach” value is “erosive bleeding was observed in the stomach”.
